Key:
U266 cells = test: Proliferation assay (CellTiter-Glo), U266 (Notch1 negative control); format: cell-based, human; details: U266 (lacking Notch1), 48 h treatment
Protocol: (§1) Human MM cell lines used were as follows: NCI-H929, OPM-2, LP-1, RPMI-8226, U266 (DSMZ, Braunschweig, Germany). Cell lines were cultured in RPMI 1640 medium (Biochrom, Berlin, Germany) supplemented with 10% heat-inactivated fetal calf serum (FCS, Gibco, Karlsruhe, Germany), 1 mM sodium pyruvate and 100 units/ml penicillin and 100 μg/ml streptomycin (Gibco). Human osteoclasts were obtained as described in the reference of Zavrski I, Krebbel H, Wildemann B, et al. Proteasome inhibitors abrogate osteoclast differentiation and osteoclast function. Biochem Biophys Res Commun. 2005; 333:200-205. Briefly, peripheral blood mononuclear cells (PBMC) were isolated from whole blood of healthy volunteers, using a Ficoll-Hypaque density gradient. The adherent fraction of the isolated mononuclear cells was cultured for 21 days in MEM medium (Sigma-Aldrich Chemie, Taufkirchen, Germany) supplemented with 10% FCS, 100 U/ml penicillin, 100 μg/ml streptomycin, 50 ng/ml M-CSF, and 25 ng/ml RANKL (osteoclastogenic medium), before coculture experiments and treatment with the inventive compounds started. […]
(§2) For assaying proliferation/viability of cells CellTiter-Glo Luminescent Cell Viability Assay (Promega, Mannheim, Germany) was used. In this assay the number of viable cells at a given time point is determined by quantification of ATP present, which serves as a measure of metabolically active cells. […]

OPM-2 cells [1] = test: Proliferation/viability assay (CellTiter-Glo), OPM-2; format: cell-based, human; details: OPM-2, 48 h treatment
Protocol: as §1, §2

OPM-2 cells [2] = test: Cell cycle analysis (propidium iodide), sub-G1 fraction, OPM-2; format: cell-based, human; details: OPM-2, after 72 h
Protocol: The compound according to example 1, hereinafter referred to as GSI15, (compound RH02015SC, Maybridge, Acros Organics, Geel, Belgium) was freshly dissolved as 26 mM stock solution in Dimethylsulfoxide (DMSO). Multiple myeloma therapeutics used were melphalan (marketed as Alkeran®, GlaxoSmithKline, Munich, Germany) and bortezomib (marketed as Velcade®, Janssen-Cilag, Neuss, Germany). Melphalan was freshly dissolved at 10 mg/ml in 0.9% NaCl-solution. Bortezomib was freshly dissolved at 100 ng/ml in 0.9% NaCl solution. Gamma Secretase Inhibitor (GSI) treatment for apoptosis assessment by AnnexinV/PI staining, cell cycle analysis and coculture experiments was performed in 6-well plates. GSI15 stock solution was added directly to the cell suspension. GSI treatment for assaying proliferation was performed in 96-well plates. […]
For cell cycle analysis 2×10^5 cells were spun down, medium was aspirated and cells washed with PBS. […] After 10 minutes incubation in the dark at room temperature, cells were analyzed by flow cytometry. The amount of apoptotic cells was determined by AnnexinV/propidium iodide staining using Human AnnexinV-FITC Kit (Bender Medsystems, Vienna, Austria), according to manufacturer's protocol. […] Cells were then spun down again, resuspended in binding buffer containing PI and analyzed by flow cytometry.

OPM-2 cells [3] = test: Apoptosis by AnnexinV-FITC/PI staining, OPM-2; format: cell-based, human
Protocol: (§3) The compound according to example 1, hereinafter referred to as GSI15, (compound RH02015SC, Maybridge, Acros Organics, Geel, Belgium) was freshly dissolved as 26 mM stock solution in Dimethylsulfoxide (DMSO). Multiple myeloma therapeutics used were melphalan (marketed as Alkeran®, GlaxoSmithKline, Munich, Germany) and bortezomib (marketed as Velcade®, Janssen-Cilag, Neuss, Germany). Melphalan was freshly dissolved at 10 mg/ml in 0.9% NaCl-solution. Bortezomib was freshly dissolved at 100 ng/ml in 0.9% NaCl solution. Gamma Secretase Inhibitor (GSI) treatment for apoptosis assessment by AnnexinV/PI staining, cell cycle analysis and coculture experiments was performed in 6-well plates. GSI15 stock solution was added directly to the cell suspension. GSI treatment for assaying proliferation was performed in 96-well plates. 10,000 cells per well were seeded in 50 μl medium per well before 50 μl of a 2× solution of GSI15 prediluted in medium were added per well. Melphalan and bortezomib treatment as well as their combination with GSI15 for assaying apoptosis by AnnexinV/PI staining was done in 6-well plates. All inhibitors were added directly to the cells in 6-well plates.
For cell cycle analysis 2×10^5 cells were spun down, medium was aspirated and cells washed with PBS. Cells were then resuspended in 250 μl PBS. 1 ml ice-cold 70% ethanol was added, followed by overnight incubation at −20° C. Cells were spun down, the pellet washed with PBS and then resuspended in 200 μl PBS containing 0.15 mg/ml RNaseA and 30 μg/ml propidium iodide (PI). After 10 minutes incubation in the dark at room temperature, cells were analyzed by flow cytometry. The amount of apoptotic cells was determined by AnnexinV/propidium iodide staining using Human AnnexinV-FITC Kit (Bender Medsystems, Vienna, Austria), according to manufacturer's protocol. Briefly, 2×10^5 cells were spun down and washed with PBS, followed by 10 minutes incubation in binding buffer containing AnnexinV-FITC conjugate. Cells were then spun down again, resuspended in binding buffer containing PI and analyzed by flow cytometry.

human podocyte cell line = test: TGFβ-induced apoptosis in human podocyte cell line (Cell Death Detection ELISA); format: cell-based
Protocol: The percentage of the apoptotic cells was determined after 24 hours using the Cell Death Detection ELISA (Roche Diagnostics, Mannheim, Germany) according to the manufaturer's protocol.

MM cells = test: Proliferation assay (CellTiter-Glo), concentration of 50% growth inhibition; format: cell-based; details: Homo sapiens; read-out: Concentration at which 50% cell growth inhibition was observed
Protocol: Human MM cell lines used were as follows: NCI-H929, OPM-2, LP-1, RPMI-8226, U266 (DSMZ, Braunschweig, Germany). Cell lines were cultured in RPMI 1640 medium (Biochrom, Berlin, Germany) supplemented with 10% heat-inactivated fetal calf serum (FCS, Gibco, Karlsruhe, Germany), 1 mM sodium pyruvate and 100 units/ml penicillin and 100 μg/ml streptomycin (Gibco). Human osteoclasts were obtained as described in the reference of Zavrski I, Krebbel H, Wildemann B, et al. Proteasome inhibitors abrogate osteoclast differentiation and osteoclast function. Biochem Biophys Res Commun. 2005; 333:200-205. Briefly, peripheral blood mononuclear cells (PBMC) were isolated from whole blood of healthy volunteers, using a Ficoll-Hypaque density gradient. The adherent fraction of the isolated mononuclear cells was cultured for 21 days in MEM medium (Sigma-Aldrich Chemie, Taufkirchen, Germany) supplemented with 10% FCS, 100 U/ml penicillin, 100 μg/ml streptomycin, 50 ng/ml M-CSF, and 25 ng/ml RANKL (osteoclastogenic medium), before coculture experiments and treatment with the inventive compounds started. Human osteoblasts were obtained according to Robey P G, Termine J D. Human bone cells in vitro. Calcif Tissue Int. 1985; 37:453-460 as described in Hecht M, Heider U, Kaiser M, von Metzler I, Sterz J, Sezer O. Osteoblasts promote migration and invasion of myeloma cells through upregulation of matrix metalloproteinases, urokinase plasminogen activator, hepatocyte growth factor and activation of p38 MAPK. Br J Haematol. 2007; 138: 446-458. Briefly, trabecular bone specimens from patients without malignant disease undergoing knee or hip surgery were minced and washed to remove bone marrow cells. The bone fragments were resuspended in Dulbecco's modified Eagle's medium (DMEM)/HAM's F12 medium (Biochrom, Berlin, Germany) supplemented with 10% FCS and cultured in tissue culture flasks until a confluent cell monolayer was obtained. Culturing of functional osteoblasts was confirmed by alkaline phosphatase (ALP) staining (kit from Sigma, USA), realtime RT-PCR analysis of expression of osteoblast markers (ALP, osteocalcin) and by von-Kossa staining before coculture and treatment experiments were started.
as §3, with “Melphalan and bortezomib treatment as well as their combination with GSI15 for assaying apoptosis by AnnexinV/PI staining was done in 6-well plates. All inhibitors were added directly to the cells in 6-well plates.” left out
as §2

[4] = Physiological compatibility, parenteral administration in mice; details: in vivo, other: parenteral, mouse
Protocol: The compound according to example 1 was tested for its physiological compatibility via parenteral administration in mice. The LD50 (parenteral, mouse) is 800 mg/kg. Accordingly compound 1 can be considered to be physiologically compatible.

CC(C)c1ccc(S(=O)(=O)Nc2cccnc2Oc2ccc(Cl)cc2)cc1 [Example 1, N-(2-(4-chlorophenoxy)pyridin-3-yl)-4-isopropylbenzenesulfonamide]
proliferation (U266 cells): almost not affected
concentration of maximum effect on proliferation (OPM-2 cells [1]): 60 µM
proliferation (OPM-2 cells [1]): dose-dependent reduction of proliferation
sub-G1 fraction (OPM-2 cells [2]): increase in the sub-G1 fraction
apoptosis induction (OPM-2 cells [3]; OPM-2, 40 μM GSI15 alone, 24 h): did not induce apoptosis
AnnexinV-FITC/PI staining (OPM-2 cells [3]; OPM-2, 48 h of treatment): decrease of OPM-2 cells negative for both Annexin V-FITC- and PI-staining
overall amount of apoptotic cells (OPM-2 cells [3]; OPM-2 alone, 60 μM GSI15, 48 h): 29%
effect in podocyte cell culture experiments (human podocyte cell line): positive effect
inhibition at 0.5 µM (human podocyte cell line; Homo sapiens, 500 nM, compared to TGFβ alone, 24 hours): 41%
IC50 (MM cells): 20 µM
LD50 [4]: 800 mg/kg

From patent US20110251220A1, “Pharmaceutical compositions comprising gamma secretase modulators” (priority 2008, published 2011)
